Converted amounts (≈) assume the structure as drawn. *1 amine or outer side, *2 acyl side, *3 side chain or, on linkers, in order; H or OH if unused. Where a SMILES comes first, the peptide text is derived from it. Bridges are numbered along the chain shown (N, C = ends). [ ]: non-standard residue; d: D form. The star is where a group is joined. pTerphenylCO(4''-OnC5H11) = CCCCCOc1ccc(-c2ccc(-c3ccc(C(=O)*)cc3)cc2)cc1; Orn(4R-OH,5R-OH) = O=C([C@H](C[C@@H](O)[C@@H](O)N[*:3])N[*:1])[*:2]; hTyr(3S-OH,4S-OH) = N[C@H](C(=O)O)[C@H](O)[C@@H](O)c1ccc(O)cc1; Pro(3S-OH,4S-Me) = C[C@H]1CN[C@H](C(=O)O)[C@H]1O; Hyp = O=C(O)[C@@H]1C[C@@H](O)CN1
How the values were obtained:
C. glabrata = experiment: Minimum inhibitory concentration broth double-dilution assay; format: cell-based, Candida glabrata; details: 24 h, 30 °C
Protocol: (§1) The antifungal activities of compounds 1 and 2 were evaluated against a panel of 50 strains of C. albicans and C. glabrata (Table S4), including echinocandin-resistant strains that were constructed by introducing mutations within and near the defined hotspots in the FKS1 and/or FKS2 genes.[27] To evaluate antifungal activity, we determined MIC values. The MIC was defined as the lowest drug concentration that led to turbidity (measured at 600 nm) of less than or equal to 35% of that of the untreated culture. As controls, we tested CSF, MCF, ANF, and RZF.
(§2) All of the tested compounds were dissolved in anhydrous DMSO to a concentration of 5 mg/mL. Candida strains were streaked from a glycerol stock onto YPAD agar plates and grown for 24 h at 30 °C. Colonies were suspended in 1 mL of PBS and diluted to an O.D. of 0.01 at 600 nm with YPAD broth and added into flat-bottom 96-well microplates (Corning) containing a gradient of twofold dilutions per tested compound with concentrations ranging from 64 to 0.0009 μg/mL. Control wells with no drug and blank wells without yeast cells containing YPAD only were also prepared. […] Each concentration was tested in triplicate, and results were confirmed by at least two independent sets of experiments.

C. albicans = experiment: as above; format: cell-based, Candida albicans; details: 24 h, 30 °C
Protocol: as §1, §2

UACC-62 = experiment: cells; format: cell-based; details: Homo sapiens; UACC-62 expressing GFP, 24 h, mean ± SD; read-out: IC50 (cell viability)
Protocol: (§3) In this analysis, we used HCT-116, a human colorectal carcinoma cell line; UACC-62, a human melanoma cell line; Hs 578T, a human mammary gland carcinoma cell line, and SF-295, a human glioblastoma cell line. […] The highest concentration of the echinocandins used for the cell viability tests was determined based on the reported maximal plasma concentrations (Cmax) of ANF and RZF measured in humans. A Cmax of approximately 7 μM was measured during a pharmacokinetic study of ANF in patients with candidemia or invasive candidiasis who were treated with a 200 mg loading dose on day 1, followed by a daily 100 mg maintenance dose.[64]
(§4) Human cell lines HCT-116, UACC-62, Hs 578T, and SF-295 were obtained from the Life Sciences Core Facilities of the Nancy & Stephen Grand Israel National Center for Personalized Medicine. Cell lines were grown in an RPMI medium (Gibco, cat. no. 21875-034) supplemented with 10% fetal calf serum (Biological Industries, cat. no. 04-007-1A), Pen/Strep (Biological Industries, cat. no. 03-031-1B), and glutamine (Biological Industries, cat. no. 03-020-1B). GFP was introduced into cells using TALENS according to a previously reported protocol.[73] GFP cells were selected by FACS and propagated.
(§5) Assay-ready plates were designed using in-house software (CHEMPION, INCPM software development team) and prepared in 384-well Greiner plates (cat. no. 781091) using an Echo 555 Acoustic Liquid Handler (Labcyte). The final DMSO concentration in all samples was 0.4%. Prior to the experiment, cells were trypsinized and counted using a Countess cytometer. Cells were then diluted to 40,000 cells/mL in a fresh medium. Cells (50 μL/well; 2000 cells/well) were then dispensed with a Thermo Combi dispenser into plates containing predispensed compounds. After 30 min at room temperature to ensure uniform adherence of cells, the plates were moved to an automated incubator (Liconic STX44) and incubated at 37 °C. An automated confocal microscope with a 4× S Fluor lens (Molecular Devices ImageExpress) was used to acquire images of GFP-expressing cells after 24 h of incubation. Images were then analyzed using MetaExpress with a custom protocol (Custom Module Editor), and data were annotated and normalized using Genedata Screener software. Final normalized data were then loaded into CDD Vault software for comparative data visualization.

HCT-116 = experiment: cells; format: cell-based; details: Homo sapiens; HCT-116 expressing GFP, 24 h, mean ± SD; read-out: IC50 (cell viability)
Protocol: as §3, §4, §5

SF-295 = experiment: cells; format: cell-based; details: Homo sapiens; SF-295 expressing GFP, 24 h, mean ± SD; read-out: IC50 (cell viability)
Protocol: as §3, §4, §5

Hs 578T = experiment: Phenotypic viability assay of GFP reporter cell line; format: cell-based; details: Homo sapiens; Hs 578T expressing GFP, 24 h, mean ± SD
Protocol: as §3, §4, §5

For `CCCCCOc1ccc(-c2ccc(-c3ccc(C(=O)N[C@H]4C[C@@H](O)[C@@H](O)NC(=O)[C@@H]5[C@@H](O)[C@@H](C)CN5C(=O)[C@H]([C@@H](C)O)NC(=O)[C@H]([C@H](O)[C@@H](O)c5ccc(O)cc5)NC(=O)[C@@H]5C[C@@H](O)CN5C(=O)[C@H]([C@@H](C)O)NC4=O)cc3)cc2)cc1` [ANF, anidulafungin] ({pTerphenylCO(4''-OnC5H11)}-[Orn(4R-OH,5R-OH)]T[Hyp][hTyr(3S-OH,4S-OH)]T[Pro(3S-OH,4S-Me)]; lactam 1-C), the MIC (C. glabrata; #9 C. glabrata EF1620) was 0.008 µg/mL (≈ 0.00702 µM), the MIC (C. glabrata; #10 C. glabrata TGL00277) was > 64 µg/mL and the MIC (C. glabrata; #11 C. glabrata TGL00275) was 4 µg/mL (≈ 3.51 µM). The MIC (C. glabrata; #12 C. glabrata CST78) was 0.004 µg/mL (≈ 0.00351 µM), the MIC (C. glabrata; #13 C. glabrata TGL00265) was 4 µg/mL (≈ 3.51 µM) and the MIC (C. glabrata; #14 C. glabrata TGL00264) was 32 µg/mL (≈ 28.1 µM). The MIC (C. glabrata; #15 C. glabrata TGL00263) was 2 µg/mL (≈ 1.75 µM), the MIC (C. glabrata; #16 C. glabrata TGL00065) was 8 µg/mL (≈ 7.02 µM) and the MIC (C. glabrata; #17 C. glabrata CST34) was 0.008 µg/mL (≈ 0.00702 µM). The MIC (C. glabrata; #18 C. glabrata TGL00258) was > 64 µg/mL, the MIC (C. glabrata; #19 C. glabrata TGL00256) was 2 µg/mL (≈ 1.75 µM) and the MIC (C. glabrata; #20 C. glabrata TGL00107) was > 64 µg/mL. The MIC (C. glabrata; #21 C. glabrata TGL00056) was > 64 µg/mL, the MIC (C. glabrata; #22 C. glabrata M12) was 0.002 µg/mL (≈ 0.00175 µM) and the MIC (C. glabrata; #23 C. glabrata TGL00270) was 4 µg/mL (≈ 3.51 µM). The MIC (C. glabrata; #24 C. glabrata TGL00269) was 0.25 µg/mL (≈ 0.219 µM), the MIC (C. glabrata; #25 C. glabrata TGL00268) was > 64 µg/mL and the MIC (C. glabrata; #26 C. glabrata TGL00268) was > 64 µg/mL. The MIC (C. glabrata; #27 C. glabrata EB0911) was 0.004 µg/mL (≈ 0.00351 µM), the MIC (C. glabrata; #28 C. glabrata TGL00261) was 2 µg/mL (≈ 1.75 µM) and the MIC (C. glabrata; #29 C. glabrata TGL00109) was > 64 µg/mL. It also gave an MIC (C. glabrata; #30 C. glabrata TGL00259) of 16 µg/mL (≈ 14 µM), an MIC (C. albicans; #1 C. albicans Sc5314) of 0.004 µg/mL (≈ 0.00351 µM) and an MIC (C. albicans; #2 C. albicans DPL1015 (DP-A15)) of 0.063 µg/mL (≈ 0.0553 µM). For the same compound, the MIC (C. albicans; #3 C. albicans DPL1016 (DP-A15-10)) was 4 µg/mL (≈ 3.51 µM), the MIC (C. albicans; #4 C. albicans T-2068 (DP-C42)) was 2 µg/mL (≈ 1.75 µM) and the MIC (C. albicans; #5 C. albicans T-2069 (DP-85)) was 2 µg/mL (≈ 1.75 µM). For the same compound, the MIC (C. albicans; #6 C. albicans (DP-89)) was 2 µg/mL (≈ 1.75 µM), the MIC (C. albicans; #7 C. albicans T-2076 (DP-194)) was 0.5 µg/mL (≈ 0.438 µM) and the MIC (C. albicans; #8 C. albicans T-2077 (DP-205)) was 0.5 µg/mL (≈ 0.438 µM). For the same compound, the IC50 (UACC-62) was 34.5 ± 4.15 µM, the IC50 (HCT-116) was > 40 µM and the IC50 (SF-295) was 19.3 ± 1.97 µM. The IC50 (Hs 578T) was > 40 µM.

Reference: publication PMC8991007, “Benzylic Dehydroxylation of Echinocandin Antifungal Drugs Restores Efficacy against Resistance Conferred by Mutated Glucan Synthase” (Journal of the American Chemical Society, 2022)
